In the experiment the target is Voltage-dependent L-type calcium channel subunit alpha-1C (Cavia porcellus, UniProt O35505). The experiment can be described thus: Inhibition of calcium channel in Cavia porcellus (guinea pig) ileum assessed as inhibition of KCl-induced contraction. Type of experiment: tissue-based.

The results in this text go back to ChEMBL document CHEMBL3045039, “Computational studies of new 1,4-dihydropyridines containing 4-(5)-chloro-2-ethyl-5-(4)-imidazolyl substituent: QSAR and docking” (Med Chem Res, 2010).

Chain of Voltage-dependent L-type calcium channel subunit alpha-1C (O35505 whole entry): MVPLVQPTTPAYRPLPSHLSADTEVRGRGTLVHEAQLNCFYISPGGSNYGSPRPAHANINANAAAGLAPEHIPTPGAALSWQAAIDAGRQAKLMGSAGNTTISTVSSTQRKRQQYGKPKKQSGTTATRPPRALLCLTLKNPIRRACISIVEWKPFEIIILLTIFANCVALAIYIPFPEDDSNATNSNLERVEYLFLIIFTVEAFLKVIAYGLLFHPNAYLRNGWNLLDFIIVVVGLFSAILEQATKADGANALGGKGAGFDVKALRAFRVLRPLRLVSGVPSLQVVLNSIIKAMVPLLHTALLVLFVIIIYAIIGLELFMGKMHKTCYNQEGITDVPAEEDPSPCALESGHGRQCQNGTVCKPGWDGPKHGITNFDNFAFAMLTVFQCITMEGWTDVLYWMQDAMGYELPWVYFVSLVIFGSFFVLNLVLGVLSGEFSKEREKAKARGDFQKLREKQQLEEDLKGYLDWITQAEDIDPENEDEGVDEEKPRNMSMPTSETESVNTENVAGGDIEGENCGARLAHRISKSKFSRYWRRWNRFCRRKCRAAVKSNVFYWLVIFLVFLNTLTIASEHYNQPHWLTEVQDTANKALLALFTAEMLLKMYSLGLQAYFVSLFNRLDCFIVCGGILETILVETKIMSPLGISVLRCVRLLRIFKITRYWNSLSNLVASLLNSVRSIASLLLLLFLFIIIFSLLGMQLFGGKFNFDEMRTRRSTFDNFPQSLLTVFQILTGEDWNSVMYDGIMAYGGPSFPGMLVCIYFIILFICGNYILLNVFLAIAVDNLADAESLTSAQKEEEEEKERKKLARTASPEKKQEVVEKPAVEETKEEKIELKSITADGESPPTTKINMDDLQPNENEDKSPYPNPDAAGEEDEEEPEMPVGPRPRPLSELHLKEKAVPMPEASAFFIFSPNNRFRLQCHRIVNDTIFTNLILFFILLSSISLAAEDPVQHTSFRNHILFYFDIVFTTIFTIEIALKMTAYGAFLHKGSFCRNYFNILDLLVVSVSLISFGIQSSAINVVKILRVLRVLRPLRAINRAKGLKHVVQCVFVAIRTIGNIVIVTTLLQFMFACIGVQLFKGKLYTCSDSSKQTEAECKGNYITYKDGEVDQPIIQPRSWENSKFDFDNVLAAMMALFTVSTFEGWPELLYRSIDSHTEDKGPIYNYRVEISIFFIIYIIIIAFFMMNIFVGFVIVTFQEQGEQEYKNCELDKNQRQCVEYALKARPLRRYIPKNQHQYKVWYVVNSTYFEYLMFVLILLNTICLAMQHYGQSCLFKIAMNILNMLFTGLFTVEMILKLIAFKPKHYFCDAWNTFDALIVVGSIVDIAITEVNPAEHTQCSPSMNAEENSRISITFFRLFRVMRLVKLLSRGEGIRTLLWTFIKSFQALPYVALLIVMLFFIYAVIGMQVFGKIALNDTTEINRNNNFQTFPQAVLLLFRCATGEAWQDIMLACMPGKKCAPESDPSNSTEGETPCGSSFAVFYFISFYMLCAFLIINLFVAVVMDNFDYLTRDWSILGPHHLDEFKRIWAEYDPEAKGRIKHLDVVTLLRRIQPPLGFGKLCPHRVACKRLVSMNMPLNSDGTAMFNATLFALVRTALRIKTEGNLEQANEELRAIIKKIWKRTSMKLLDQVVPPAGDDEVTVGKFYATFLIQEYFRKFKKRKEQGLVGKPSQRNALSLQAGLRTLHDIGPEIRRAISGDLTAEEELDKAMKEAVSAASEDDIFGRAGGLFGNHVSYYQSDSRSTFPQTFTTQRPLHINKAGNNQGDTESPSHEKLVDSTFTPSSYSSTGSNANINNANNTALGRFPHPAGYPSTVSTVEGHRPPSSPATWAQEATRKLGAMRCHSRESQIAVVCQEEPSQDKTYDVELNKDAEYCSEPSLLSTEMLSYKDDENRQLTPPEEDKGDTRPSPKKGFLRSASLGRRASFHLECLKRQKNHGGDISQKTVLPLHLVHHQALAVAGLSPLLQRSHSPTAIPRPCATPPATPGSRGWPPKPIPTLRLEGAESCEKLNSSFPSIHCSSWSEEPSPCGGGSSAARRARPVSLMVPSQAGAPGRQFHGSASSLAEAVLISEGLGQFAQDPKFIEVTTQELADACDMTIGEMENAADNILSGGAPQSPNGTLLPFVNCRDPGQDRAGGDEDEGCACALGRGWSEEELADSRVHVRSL

Usually IC50 stands for the concentration needed to halve the response being measured. On to `CCc1nc(C2C(C(=O)OC)=C(C)NC(C)=C2C(=O)OCCc2ccccc2)c(Cl)[nH]1` (stereo not drawn), for which the IC50 is 0.0309 nM.

In the case of `CCOC(=O)C1=C(C)NC(C)=C(C(=O)OCC)C1c1[nH]c(CC)nc1Cl`, the concentration for half-maximal inhibition (IC50) is 0.158 nM.

Regarding `CCc1nc(Cl)c(C2C(C(=O)OC3CCCC3)=C(C)NC(C)=C2C(=O)OC2CCCC2)[nH]1`, the IC50 was 0.212 nM.

Consider `CCOC(=O)C1=C(C)NC(C)=C(C(=O)OC)C1c1[nH]c(CC)nc1Cl` (stereo not drawn), for which the IC50 is 2.02 nM.

As to `CCc1nc(C2C(C(=O)OCCc3ccccc3)=C(C)NC(C)=C2C(=O)OCCc2ccccc2)c(Cl)[nH]1`, the concentration for half-maximal inhibition (IC50) is 0.0437 nM.

`CCOC(=O)C1=C(C)NC(C)=C(C(=O)OC(C)C)C1c1[nH]c(CC)nc1Cl` (stereo not drawn): the IC50 was 0.564 nM.

For the compound `CCOC(=O)C1=C(C)NC(C)=C(C(=O)OCc2ccccc2)C1c1[nH]c(CC)nc1Cl` (stereo not drawn), the IC50 is 2.66 nM.

On to `CCc1nc(Cl)c(C2C(C(=O)OC(C)C)=C(C)NC(C)=C2C(=O)OC(C)C)[nH]1`, for which the IC50 was 0.748 nM.

For the compound `CCc1nc(Cl)c(C2C(C(=O)OC)=C(C)NC(C)=C2C(=O)OC(C)C)[nH]1` (stereo not drawn), the IC50 was 0.488 nM.

As for `CCCOC(=O)C1=C(C)NC(C)=C(C(=O)OC)C1c1[nH]c(CC)nc1Cl` (stereo not drawn), the concentration for half-maximal inhibition (IC50) is 0.146 nM.

On to `CCc1nc(Cl)c(C2C(C(=O)OCC(C)C)=C(C)NC(C)=C2C(=O)OCC(C)C)[nH]1`, for which the half-inhibitory concentration (IC50) is 2.64 nM.

Take `CCc1nc(C2C(C(=O)OCc3ccccc3)=C(C)NC(C)=C2C(=O)OCc2ccccc2)c(Cl)[nH]1`: the IC50 was 0.906 nM.

In the case of `CCCOC(=O)C1=C(C)NC(C)=C(C(=O)OCC)C1c1[nH]c(CC)nc1Cl` (stereo not drawn), the IC50 is 0.543 nM.

`CCc1nc(Cl)c(C2C(C(=O)OC)=C(C)NC(C)=C2C(=O)OC(C)(C)C)[nH]1` (stereo not drawn): the IC50 is 50.8 nM.

On to `CCOC(=O)C1=C(C)NC(C)=C(C(=O)OCCc2ccccc2)C1c1nc(CC)[nH]c1Cl` (stereo not drawn), for which the half-inhibitory concentration (IC50) was 0.0457 nM.

As for `CCCOC(=O)C1=C(C)NC(C)=C(C(=O)OCCC)C1c1[nH]c(CC)nc1Cl`, the 50% inhibitory concentration (IC50) was 0.13 nM.

On to `CCc1nc(Cl)c(C2C(C(=O)OC3CCCCC3)=C(C)NC(C)=C2C(=O)OC2CCCCC2)[nH]1`, for which the IC50 was 0.132 nM.

Regarding `CCc1nc(Cl)c(C2C(C(=O)OC)=C(C)NC(C)=C2C(=O)OCc2ccccc2)[nH]1` (stereo not drawn), the IC50 was 1.75 nM.

Regarding `CCc1nc(Cl)c(C2C(C(=O)OCCCc3ccccc3)=C(C)NC(C)=C2C(=O)OCCCc2ccccc2)[nH]1`, the IC50 was 0.0668 nM.

In the case of `CCc1nc(Cl)c(C2C(C(=O)OC(C)(C)C)=C(C)NC(C)=C2C(=O)OC(C)(C)C)[nH]1`, the IC50 was 34.2 nM.

Regarding `CCOC(=O)C1=C(C)NC(C)=C(C(=O)OC(C)(C)C)C1c1[nH]c(CC)nc1Cl` (stereo not drawn), the IC50 is 99.8 nM.

Consider `CCOC(=O)C1=C(C)NC(C)=C(C(=O)OCC2CCCCC2)C1c1[nH]c(CC)nc1Cl` (stereo not drawn), for which the concentration for half-maximal inhibition (IC50) is 1.07 nM.

In the case of `CCc1nc(Cl)c(C2C(C(=O)OC)=C(C)NC(C)=C2C(=O)OC)[nH]1`, the IC50 was 0.596 nM.
